Bridge positions count the residues as written; N and C are the ends. Square brackets hold non-standard residues; d marks the D form. Ends that are not written are not given here. Phe(4-guanidino) = N=C(N)Nc1ccc(C[C@H](N)C(=O)O)cc1
Experiments:
[1] = background value; cited from earlier work
[2] = molecular target: the molecule itself; assay: Thioflavin T fluorescence; LUVs of DOPE:DOPG:CL (65:23:12, mol/mol/mol) mimicking the Gram-negative membrane, 100 uM lipid, titrated with 5-50 uM peptide; 100 mM NaCl, 10 mM Tris-HCl, 25 uM ThT, pH 7.4; peptide oligomerisation within the vesicles

N=C(N)NCCC[C@H](N)C(=O)O [arginine]
pK a1 [1]: 2.18
pK a2 [1]: 9.09
pK a3 [1]: 13.20

NCCCC[C@H](N)C(=O)O [lysine]
pK a [1]: 10.94

B1: peptide 6 (cyclic Temporin L analogue with a guanidino pendant on the para position of Phe1) (peptide, UniProt P57104 1-13, looked up)
peptide: [Phe(4-guanidino)]VPWFKKF[dL][dE]RIL-NH2
modifications: lactam 6-10; N-terminus assumed
SMILES: CC[C@H](C)[C@H](NC(=O)[C@H](CCCNC(=N)N)NC(=O)[C@H]1CCC(=O)NCCCC[C@H](NC(=O)[C@H](Cc2ccccc2)NC(=O)[C@H](Cc2c[nH]c3ccccc23)NC(=O)[C@@H]2CCCN2C(=O)[C@@H](NC(=O)[C@@H](N)Cc2ccc(NC(=N)N)cc2)C(C)C)C(=O)N[C@@H](CCCCN)C(=O)N[C@@H](Cc2ccccc2)C(=O)N[C@H](CC(C)C)C(=O)N1)C(=O)N[C@@H](CC(C)C)C(N)=O
notes: peptide 6 is peptide 2 with (p-guanidino)Phe in place of Phe1; also called compound 6; source: synthetic peptide (Fmoc-based US-SPPS, RP-HPLC purified, >97%)
% aggregation at P/L 0.5 [2]: ~40%

B2: peptide 7 (cyclic Temporin L analogue with a guanidino pendant at position 4 of the Pro3 ring) (peptide, UniProt P57104 1-13, looked up)
peptide: FV[Pro(4-guanidino)]WFKKF[dL][dE]RIL-NH2
modifications: lactam 6-10
notes: peptide 7 is peptide 2 with (4-guanidino)Pro in place of Pro3; also called compound 7; source: synthetic peptide (Fmoc-based US-SPPS, RP-HPLC purified, >97%)
% aggregation at P/L 0.5 [2]: ~60%

B3: peptide 2 (cyclic Temporin L analogue; TLcyc with D-Glu at position 10) (peptide, UniProt P57104 1-13, looked up)
peptide: FVPWFKKF[dL][dE]RIL-NH2
modifications: lactam 6-10
notes: peptide 2 is the [Pro3,DLeu9]TL frame cyclised between positions 6 (Lys) and 10 (D-Glu); Free N-terminal amine; also called compound 2; source: synthetic peptide (Fmoc-based US-SPPS, RP-HPLC purified, >97%)
% aggregation at P/L 0.5 [2]: ~60%

From paper PMC12703733, “Probing Guanidino Pendant or Bridged Groups in Cyclic Antimicrobial Peptides Derived from Temporin L: A Strategy to Improve Efficacy against Gram-Negative Bacteria” (Journal of Medicinal Chemistry, 2025)
